Laboratory results taken from US20240279220A1, “INDOLE COMPOUNDS AND METHODS OF USE” (Genzyme Corporation, priority 2021, published 2024).

The molecules below were run on NBD1/3D (assay: Aggregation analysis using differential static light scattering (DSLS), NBD1 thermal stability). Conditions: ΔTagg versus DMSO control; compound at 100 μM.
Assay type: binding, Human
Description: Purified recombinant NBD1 was produced using previously described methods (A. Schmidt, J. L. Mendoza, P. J. Thomas (2011) Biochemical and Biophysical Approaches to Probe CFTR Structure (365-376) M. D. Amaral, K. Kunzelmann (eds.), Cystic Fibrosis, Methods in Molecular Biology 741, Springer Science+Business Media). The effect of test compounds on thermal stability of NBD1 was evaluated by differential static light scattering (DSLS) using the Harbinger Stargazer-384 instrument (Epiphyte Three, Toronto, Canada).
Test compounds were dissolved and diluted to desired concentrations in 100% DMSO. The compounds or DMSO controls (100 nL) were stamped into wells of a […] low volume optical plate (Corning Inc., Corning, NY) using the Echo 555 acoustic liquid handler (Labcyte Inc., San Jose, CA).
NBD1 protein was diluted to 0.2 mg/ml in S200 buffer (50 mM Tris-HCl, 150 mM NaCl, 5 mM MgCl2, 2 mM ATP, 2 mM DTT, pH7.6) containing 1% glycerol. 10 uL of protein solution was aliquoted into the 384-well plate harboring the test compounds and 10 uL mineral oil was overlayed onto the protein solution, using the epMotion robotic liquid handler (Eppendorf North America, Hauppauge, NY). After placing into the Stargazer instrument, the plate was heated at 1° C. per minute to 70° C. Images were captured from 25° C. to 70° C. every 0.5° C. At the end of the experiment run, instrument software integrated image files and analyzed data automatically. A […] regression curve was generated for each well, representing the increase in light scattering over time. A temperature of aggregation (Tagg) was calculated based on the inflection point of the curve. To better compare data across experiments the average Tagg for DMSO control wells was calculated and subtracted from values for wells containing compounds to obtain a “ΔTagg” value. These ΔTagg values reflect stabilizing efficacy of the compounds.

Row | SMILES | DSLS NBD1/3D Human Stability delta-T (° C.) @ 100 (μM)
1 | Cc1c(Oc2ccc(F)c(-c3nnc(Cc4cccc(C5(F)CC(C(=O)O)C5)c4)[nH]3)c2)c(F)cc2[nH]ccc12 (centres unmarked) [Example 248, 3-Fluoro-3-(3-((5-(2-fluoro-5-((6-fluoro-4-methyl-1H-indol-5-yl)oxy)phenyl)-4H-1,2,4-triazol-3-yl)methyl)phenyl)cyclobutane-1-carboxylic acid] | C (C: ≤5° C.)
2 | CO[C@]1(C)C[C@@](c2cccc(CCC(=O)O)c2)(c2cnc(-c3cc(Oc4c(F)c(F)c5[nH]ccc5c4S(C)(=O)=O)ccc3F)[nH]2)C1 [Example 70, rac-3-(3-((1r,3r)-1-(2-(5-((6,7-Difluoro-4-(methylsulfonyl)-1H-indol-5-yl)oxy)-2-fluorophenyl)-1H-imidazol-5-yl)-3-methoxy-3-methylcyclobutyl)phenyl)propanoic acid] | A (A: T ≥ 10° C.)
3 | O=C(O)CCCc1cccc(Cc2nnc(-c3cccc(Oc4ccc5[nH]ccc5c4)c3)[nH]2)c1 [Example 259, 4-(3-((5-(3-((1H-Indol-5-yl)oxy)phenyl)-4H-1,2,4-triazol-3-yl)methyl)phenyl)butanoic acid] | B (B: 5-10° C.)
4 | Cc1c(Oc2ccc(F)c(-c3ncc(C(C)(O)c4cccc(CC(F)C(=O)O)c4)[nH]3)c2)c(F)cc2[nH]ccc12 (centres unmarked) [Example 199, 2-fluoro-3-(3-(1-(2-(2-fluoro-5-((6-fluoro-4-methyl-1H-indol-5-yl)oxy)phenyl)-1H-imidazol-5-yl)-1-hydroxyethyl)phenyl) propanoic acid] | A (A: T ≥ 10° C.)
5 | [2H]C([2H])([2H])C(C#N)(c1cccc(CCC(=O)O)c1)c1cnc(-c2cc(Oc3c(F)cc4[nH]ccc4c3F)ccc2F)[nH]1 (centres unmarked) [Example 60, 3-(3-(1-cyano-1-(2-(5-((4,6-difluoro-1H-indol-5-yl)oxy)-2-fluorophenyl)-1H-imidazol-5-yl)ethyl-2,2,2-d3)phenyl)propanoic acid] | B (B: 5-10° C.)
6 | CS(=O)(=O)c1c(Oc2cccc(-c3ncn(Cc4cccc(CCC(=O)O)c4)n3)c2)c(F)cc2[nH]ccc12 [Example 32, 3-(3-((3-(3-((6-Fluoro-4-(methylsulfonyl)-1H-indol-5-yl)oxy)phenyl)-1H-1,2,4-triazol-1-yl)methyl)phenyl)propanoic acid] | B (B: 5-10° C.)
7 | CC(c1c[nH]c(-c2cc(Oc3c(F)cc4[nH]ccc4c3S(C)(=N)=O)ccc2F)n1)c1cccc(CCC(=O)O)c1F (single isomer, unassigned) [Example 136A, 3-(2-fluoro-3-(1-(2-(2-fluoro-5-((6-fluoro-4-(S-methylsulfonimidoyl)-1H-indol-5-yl)oxy)phenyl)-1H-imidazol-4-yl)ethyl)phenyl)propanoic acid] | B (B: 5-10° C.)
8 | Cc1c(Oc2ccc(F)c(-c3ncc(C(C)(C#N)c4cccc(CCC(=O)O)c4)[nH]3)c2)c(F)cc2[nH]ccc12 (centres unmarked) [Example 50, 3-(3-(1-cyano-1-(2-(2-fluoro-5-((6-fluoro-4-methyl-1H-indol-5-yl)oxy)phenyl)-1H-imidazol-5-yl)ethyl)phenyl)propanoic acid] | B (B: 5-10° C.)
9 | CC(c1c[nH]c(-c2cc(Oc3c(F)cc4[nH]ccc4c3S(C)(=N)=O)ccc2F)n1)c1cccc(CCC(=O)O)c1F (single isomer, unassigned) [Example 136D, 3-(2-fluoro-3-(1-(2-(2-fluoro-5-((6-fluoro-4-(S-methylsulfonimidoyl)-1H-indol-5-yl)oxy)phenyl)-1H-imidazol-4-yl)ethyl)phenyl)propanoic acid] | B (B: 5-10° C.)
10 | Cc1c(Oc2ccc(F)c(-c3ncc(C(C)(O)c4cccc(CCC(=O)O)c4)[nH]3)c2)c(F)c(F)c2[nH]ccc12 (centres unmarked) [Example 204, 3-(3-(1-(2-(5-((6,7-difluoro-4-methyl-1H-indol-5-yl)oxy)-2-fluorophenyl)-1H-imidazol-5-yl)-1-hydroxyethyl)phenyl) propanoic acid] | B (B: 5-10° C.)
11 | CS(=O)(=O)c1c(Oc2ccc(F)c(-c3ncc(Cc4cccc(CCC(=O)O)c4)[nH]3)c2)c(F)cc2[nH]ccc12 [Example 22, 3-(3-((2-(2-Fluoro-5-((6-fluoro-4-(methylsulfonyl)-1H-indol-5-yl)oxy)phenyl)-1H-imidazol-5-yl)methyl)phenyl)propanoic acid] | A (A: T ≥ 10° C.)
12 | O=C(O)CCc1cccc(C2(c3cnc(-c4cc(Oc5c(F)cc6[nH]ccc6c5F)ccc4F)[nH]3)CC2)c1 [Example 143, 3-(3-(1-(2-(5-((4,6-difluoro-1H-indol-5-yl)oxy)-2-fluorophenyl)-1H-imidazol-5-yl)cyclopropyl)phenyl)propanoic acid] | B (B: 5-10° C.)
13 | CS(=O)(=O)c1c(Oc2ccc(F)c(-c3ncc(Cc4ccc5c(c4)CC(C(=O)O)C5)[nH]3)c2)c(F)cc2[nH]ccc12 (single isomer, unassigned) [Example 83B, 5-((2-(2-Fluoro-5-((6-fluoro-4-(methylsulfonyl)-1H-indol-5-yl)oxy)phenyl)-1H-imidazol-5-yl)methyl)-2,3-dihydro-1H-indene-2-carboxylic acid] | B (B: 5-10° C.)
14 | Cc1c(Oc2ccc(F)c(-c3ncc(C(C)c4cccc(CCC(=O)O)c4)[nH]3)c2)c(F)cc2[nH]ccc12 (centres unmarked) [Example 213, 3-(3-(1-(2-(2-Fluoro-5-((6-fluoro-4-methyl-1H-indol-5-yl)oxy)phenyl)-1H-imidazol-5-yl)ethyl)phenyl)propanoic acid] | B (B: 5-10° C.)
15 | CC(CO)(c1cccc(CCC(=O)O)c1)c1c[nH]c(-c2cc(Oc3c(F)c(F)c4[nH]ccc4c3S(C)(=O)=O)ccc2F)n1 (centres unmarked) [Example 69, 3-(3-(2-(2-(5-((6,7-difluoro-4-(methylsulfonyl)-1H-indol-5-yl)oxy)-2-fluorophenyl)-1H-imidazol-5-yl)-1-hydroxypropan-2-yl)phenyl)propanoic acid] | A (A: T ≥ 10° C.)
16 | Cc1c(Oc2ccc(F)c(-c3nc(C(C)(O)c4cc(F)cc(CCC(=O)O)c4)c[nH]3)c2)c(F)cc2[nH]ccc12 (centres unmarked) [Example 192, 3-(3-fluoro-5-(1-(2-(2-fluoro-5-((6-fluoro-4-methyl-1H-indol-5-yl)oxy)phenyl)-1H-imidazol-4-yl)-1-hydroxyethyl)phenyl) propanoic acid] | B (B: 5-10° C.)
17 | Cc1c(Oc2cccc(-c3ccnn3C(C)c3cccc(CC(=O)O)c3)c2)ccc2[nH]ccc12 (centres unmarked) [Example 3, 2-(3-(1-(5-(3-((4-methyl-1H-indol-5-yl)oxy)phenyl)-1H-pyrazol-1-yl)ethyl)phenyl)acetic acid] | C (C: ≤5° C.)
18 | O=C(O)CCc1cccc(Cc2cnc(-c3cc(Oc4ccc5[nH]ccc5c4C(F)(F)F)ccc3F)[nH]2)c1 [Example 104, 3-(3-((2-(2-fluoro-5-((4-(trifluoromethyl)-1H-indol-5-yl)oxy)phenyl)-1H-imidazol-5-yl)methyl)phenyl)propanoic acid] | B (B: 5-10° C.)
19 | C=Cc1c(Oc2cccc(-c3ncc(C(O)c4cccc(CCC(=O)O)c4)[nH]3)c2)ccc2[nH]ccc12 (centres unmarked) [Example 174, 3-(3-(hydroxy(2-(3-((4-vinyl-1H-indol-5-yl)oxy)phenyl)-1H-imidazol-5-yl)methyl)phenyl)propanoic acid] | B (B: 5-10° C.)
20 | O=C(O)CCc1cccc(Cc2c[nH]c(-c3cc(Oc4c(F)cc5[nH]ccc5c4Cl)ccc3F)n2)c1F [Example 111, 3-(3-((2-(5-((4-chloro-6-fluoro-1H-indol-5-yl)oxy)-2-fluorophenyl)-1H-imidazol-4-yl)methyl)-2-fluorophenyl)propanoic acid] | B (B: 5-10° C.)
21 | O=C(O)CCc1cccc(Cc2nnc(-c3cc(Oc4c(F)cc5[nH]ccc5c4F)ccc3F)[nH]2)c1 [Example 240, 3-(3-((5-(5-((4,6-difluoro-1H-indol-5-yl)oxy)-2-fluorophenyl)-4H-1,2,4-triazol-3-yl)methyl)phenyl) propanoic acid] | B (B: 5-10° C.)
22 | Cc1c(Oc2ccc(F)c(-c3ncc(Cc4cc(F)cc(CCC(=O)O)c4)[nH]3)c2)ccc2[nH]ccc12 [Example 106, 3-(3-fluoro-5-((2-(2-fluoro-5-((4-methyl-1H-indol-5-yl)oxy)phenyl)-1H-imidazol-5-yl)methyl)phenyl)propanoic acid] | B (B: 5-10° C.)
23 | CNC(=O)c1c(Oc2cccc(-c3ccn(Cc4cccc(CCC(=O)O)c4)n3)c2)ccc2[nH]ccc12 [Example 16, 3-(3-((3-(3-((4-(Methylcarbamoyl)-1H-indol-5-yl)oxy)phenyl)-1H-pyrazol-1-yl)methyl)phenyl)propanoic acid] | B (B: 5-10° C.)
